The nature of test [1]: Cytotoxic activity of compound against MEL-28 (Human melanoma) cell line. Type of test: functional. As to conditions: SK-MEL-28.
For test [2], the system named is A549. Put plainly: Cytotoxic activity against A-549 (Human lung carcinoma) cell line. Type of test: functional, cell-based.
The subject of test [3] is HT-29. Put plainly: Cytotoxic activity of compound against HT-29 (Human colon carcinoma) cell line. Type of test: functional, cell-based.

With `Cc1cnc2c(c1)C(=O)c1cc(C)cnc1C2=O`, the half-inhibitory concentration (IC50) in test [1] is 210 nM; in test [2], 210 nM; in test [3], 500 nM.
`CCc1c(C)cnc2c1C(=O)c1ncc(C)c(CC)c1C2=O`: the half-inhibitory concentration (IC50) in test [1], in test [2] and in test [3] was 3400 nM each time.
On to `Cc1cnc2c(c1)C(=O)c1nccc(Cl)c1C2=O`, for which the IC50 in test [1] was 30 nM; in test [2] it was 30 nM; in test [3], 40 nM.
As to `O=C1c2cccnc2C(=O)c2ncccc21`, the concentration for half-maximal inhibition (IC50) in test [1] came out at 4800 nM; in test [2] it was 4800 nM; in test [3] it was 5700 nM.
On to `O=C1c2nccc(-c3ccccc3[N+](=O)[O-])c2C(=O)c2nccc(O)c21`, for which the IC50 in test [1], in test [2] and in test [3] was 7200 nM in each case.
Take `Cc1cnc2c(c1)C(=O)c1ncc(C)cc1C2=O`: the figures for the IC50 in test [1], in test [2] and in test [3] were 40 nM, 40 nM and 420 nM, respectively.
On to `CCc1cnc2c(c1)C(=O)c1cc(CC)cnc1C2=O`, for which the IC50 is 790 nM in test [1], 450 nM in test [2] and 1880 nM in test [3].
On the same counts, the results for `CCc1cnc2c(c1)C(=O)c1ncc(CC)cc1C2=O` are 380 nM, 190 nM and 1880 nM.
In the case of `O=C1c2nccc(-c3ccccc3[N+](=O)[O-])c2C(=O)c2nccc(Cl)c21`, the concentration for half-maximal inhibition (IC50) turned out to be 30 nM in test [1], 30 nM in test [2] and 270 nM in test [3].
For the compound `Cc1ccnc2c1C(=O)c1nccc(Cl)c1C2=O`, the results for the IC50 in test [1], in test [2] and in test [3] were 190 nM, 190 nM and 1930 nM, respectively.
Consider `Cc1cc[n+](N(C)C)c2c1C(=O)c1nccc(Cl)c1C2=O`, for which the values for the IC50 in test [1], in test [2] and in test [3] were 330 nM, 330 nM and 1930 nM, respectively.
Consider `O=C1c2cccnc2C(=O)c2cccnc21`, for which the IC50 in test [1], in test [2] and in test [3] was 4800 nM throughout.
`Cc1ccnc2c1C(=O)c1c(C)ccnc1C2=O`: the IC50 in test [1], in test [2] and in test [3] was 2100 nM in each case.
Consider `CCc1c(C)cnc2c1C(=O)c1c(ncc(C)c1CC)C2=O`, for which the IC50 in test [1], in test [2] and in test [3] was 8500 nM each time.
With `Cc1ccnc2c1C(=O)c1nccc(C)c1C2=O`, the results for the IC50 in test [1], in test [2] and in test [3] were 1000 nM, 500 nM and 1000 nM, respectively.
Take `Cc1ccnc2c1C(=O)c1nccc(N(C)C)c1C2=O`: the IC50 in test [1] was 370 nM; in test [2], 370 nM; in test [3] it was 930 nM.
With `Cc1ccnc2c1C(=O)c1nc3c(cc1C2=O)CCCC3`, the concentration for half-maximal inhibition (IC50) was 18000 nM in test [1], 4490 nM in test [2] and 18000 nM in test [3].
Consider `COc1cccc2c1C(=O)c1c(O)c3c(c(O)c1C2=O)C[C@@](O)(C(=O)CO)C[C@@H]3O[C@H]1C[C@H](N)[C@H](O)[C@H](C)O1` [DOXORUBICIN], for which the IC50 turned out to be 30 nM in test [1], 10 nM in test [2] and 90 nM in test [3].

These data come from ChEMBL document CHEMBL1137116, “Synthesis and structure-activity relationships of 1,5-diazaanthraquinones as antitumour compounds” (Bioorg Med Chem Lett, 2004).
